In this experiment the test system is Diet induced obesity (DIO) littermate C57B1/6J mice. Put plainly: Treatment of obese MC4R+/− heterozygotic mice by Alzet pump infusion, body weight measured. The format is in vivo. The conditions noted are these: Alzet pump infusion 1200 nmol/kg/day for 8 days, FIG. 3. The protocol:
Body weight was measured.
The weight change due to the exposure to the compound of SEQ ID NO: 140 in mice that are either wild type for the MC4R gene, or express only a single MC4R allele, or mice without any MC4R protein expression were compared.

Bridges are numbered along the chain shown (N, C = ends). [ ]: non-standard residue; d: D form.

Turning to “Ac-Arg-c(Cys-D-Ala-His-D-Phe-Arg-Trp-Cys)-NH2 (Ac-RC[dA]H[dF]RWC-NH2; disulfide 2-8 (inferred)) [SEQ ID NO: 140]”, for the setting “DIO homozygous MC4R knockout mice (−/−), no MC4R expression”, the “weight loss over the treatment period” value is recorded as “did not show significant weight loss”. Also, the “body weight lost over the treatment period” value (DIO mice heterozygous for the MC4R gene (+/−)) was “about 1 gram”.

For the origin of these results see patent US10954268B2, “Method of treating melanocortin-4 receptor-associated disorders in heterozygous carriers” (RHYTHM PHARMACEUTICALS, INC., priority 2011, dated 2021).
